Measured values reported in paper PMC9936582, “Sulfamate Acetamides as Self-Immolative Electrophiles for Covalent Ligand-Directed Release Chemistry” (Journal of the American Chemical Society, 2023).
“Also recorded” adds a separate entry of the source.

Columns and labels:
[1] = target: BTK (Homo sapiens, UniProt Q06187); assay: BTK activity (autophosphorylation) in Mino cells, Western blot; format: cell-based; set-up: endogenous in cells; host or cells: Mino cells; details: anti-IgM activation, Western blot normalized to β-actin
Sequence of BTK (Homo sapiens, UniProt Q06187) (Q06187 whole entry): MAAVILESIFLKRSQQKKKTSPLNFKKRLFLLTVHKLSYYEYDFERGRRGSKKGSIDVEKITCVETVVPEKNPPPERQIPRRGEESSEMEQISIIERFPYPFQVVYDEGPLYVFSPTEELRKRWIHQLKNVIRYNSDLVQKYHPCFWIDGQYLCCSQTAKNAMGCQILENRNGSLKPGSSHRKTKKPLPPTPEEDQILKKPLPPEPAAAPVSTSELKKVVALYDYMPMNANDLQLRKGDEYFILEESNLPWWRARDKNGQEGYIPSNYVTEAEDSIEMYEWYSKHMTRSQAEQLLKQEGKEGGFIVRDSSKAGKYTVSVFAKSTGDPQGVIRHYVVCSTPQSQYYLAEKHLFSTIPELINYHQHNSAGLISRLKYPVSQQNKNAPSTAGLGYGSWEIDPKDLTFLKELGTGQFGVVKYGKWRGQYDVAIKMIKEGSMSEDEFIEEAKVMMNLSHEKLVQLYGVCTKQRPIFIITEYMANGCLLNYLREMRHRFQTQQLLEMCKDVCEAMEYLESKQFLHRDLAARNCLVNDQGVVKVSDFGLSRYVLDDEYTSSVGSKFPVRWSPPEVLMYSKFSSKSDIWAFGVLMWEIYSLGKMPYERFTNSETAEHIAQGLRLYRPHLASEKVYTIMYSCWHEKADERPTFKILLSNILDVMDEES
Description: To assess the cellular efficacy of these compounds, we followed the inhibition of BTK autophosphorylation in Mino cells. After 1 h of pre-incubation with the inhibitors and B-cell activation with an anti-IgM antibody, BTK autophosphorylation was followed by Western blot.
The cell pellets were subjected to immunoblotting, and Western blots were performed for p-BTK, BTK, and β-actin.
Cell pellets were washed with ice-cold PBS and lysed using RIPA buffer (Sigma, R0278). […] Samples containing 50 μg total protein were prepared with 4× LDS sample buffer (NuPAGE, Thermo Scientific, NP0007) and 20 mM DTT, which were then resolved on a 4–20% Bis–Tris gel (GeneScript SurePAGE, M00657). […] An EZ-ECL Kit (Biological Industries, 20-500-1000) was used to detect HRP activity.

[2] = tested on: IgM+/CD5+ cells; assay: TCL1 adoptive transfer mouse model for CLL; format: in vivo; details: after 2 weeks of treatment, vs untreated mice
Description: (§1) We tested compound 3c in the TCL1 adoptive transfer mouse model for CLL.[42] In this experiment, immune-competent healthy mice received an adoptive transfer of 4 × 10^7 TCL1 splenocytes obtained from full leukemic TCL1 transgenic mice by intravenous injection (Figure 4D). IgM+/CD5+ cells were monitored weekly, and treatment (or mock treatment) was started 4 weeks after transplantation when CD5+ were > 30% in the blood. The mice received a solution containing sulfamate 3c (0.16 mg/mL in 1% cyclodextrin water) ad libitum in the drinking water. […] Moreover, spleens were isolated from the mice after 2 weeks of treatment and quantified.
TCL1 mice for this model were generated as previously described.[42] For this experiment, TCL1 mice approximately 12 months of age with a malignant cell population higher than 60% in the PB were sacrificed. Their spleens were excised, and 4 × 10^7 cells resuspended in PBS^–/– were injected into the tail vein of 6 week old recipient mice. Progression of the disease was followed in the PB by using flow cytometry for the +IgM/+CD5 population. Mice with >30% IgM+/CD5+ cells were considered to be diseased and were used for further analysis.
Isolated cells were stained using specific antibodies (IgM-PE, CD5-APC, BioLegend) in staining buffer (0.5% bovine serum albumin in phosphate-buffered saline) for 30 min in 4 °C in dark then washed twice. […]

[3] = target: T1, BTK (Mus musculus, UniProt P35991); assay: BTK engagement in treated mice spleens; format: in vivo; details: spleen lysates, ibrutinib alkyne analogue, TAMRA-azide
T1 construct: the dissected spleens were extracted with RIPA buffer and incubated with an ibrutinib alkyne analogue; from tissue; host or cells: spleen of mice with adoptively transferred TCL1 leukemic splenocytes
T1 sequence (P35991 whole entry): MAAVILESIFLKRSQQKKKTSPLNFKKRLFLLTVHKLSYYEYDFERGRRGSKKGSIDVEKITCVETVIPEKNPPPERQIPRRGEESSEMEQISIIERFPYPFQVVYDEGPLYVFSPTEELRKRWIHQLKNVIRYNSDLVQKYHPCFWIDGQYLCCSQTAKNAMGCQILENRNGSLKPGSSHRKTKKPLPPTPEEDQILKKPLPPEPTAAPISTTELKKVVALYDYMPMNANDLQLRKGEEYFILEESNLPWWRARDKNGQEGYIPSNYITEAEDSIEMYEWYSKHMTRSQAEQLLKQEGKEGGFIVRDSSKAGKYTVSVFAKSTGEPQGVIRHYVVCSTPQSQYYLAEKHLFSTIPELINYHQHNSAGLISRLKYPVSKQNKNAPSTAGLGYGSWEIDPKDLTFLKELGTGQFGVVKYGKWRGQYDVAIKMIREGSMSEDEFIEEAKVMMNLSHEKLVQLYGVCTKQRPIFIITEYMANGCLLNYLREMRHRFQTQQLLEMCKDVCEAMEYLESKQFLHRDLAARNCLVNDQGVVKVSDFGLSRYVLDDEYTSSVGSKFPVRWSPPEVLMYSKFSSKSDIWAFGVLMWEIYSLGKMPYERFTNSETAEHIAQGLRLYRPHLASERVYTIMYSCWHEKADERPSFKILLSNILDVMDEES
Description: as §1
Pellets of harvested spleens were lysed using RIPA buffer (Sigma, R0278) and clarified at 21,000g for 15 min at 4 °C, and protein concentration was determined using BCA protein assay (Thermo Scientific, 23225). Lysates were diluted to 2 mg/mL, 50 μL per sample, and incubated for 1 h in room temperature with 1 μM probe 4 to label BTK. Lysates were then clicked to TAMRA-azide and imaged using ChemiDoc MP (546 nm) as described in the in-gel fluorescence protocol.

[4] = tested on: Mino cells; assay: isoDTB ABPP in Mino cells; format: cell-based, human; details: for isoDTB-ABPP H/L Ratio: mino cells, 1 µM compound, 2h
Description: This was followed by a reaction with biotin-azide using CuAAC, enrichment of the labeled proteins, and their quantification by tryptic digestion and LC/MS/MS analysis.
The preparation of IsoDTB-ABPP samples was performed essentially as described in Zanon et al.2.
Experiments were conducted in quadruplicates. […] For lysis, samples containing 10 million cells were dispersed in 0.5 mL of RIPA buffer (Sigma, R0278),
sample was diluted to 1.7 mg/mL using PBS. To each sample, 5 µL of 10 mM IA-alkyne was added, followed by 1 h incubation at room temperature in the dark. 10 µL of 5 mM DesThioTag was added (Light for the compound treated samples, heavy for the DMSO-treated samples), followed by 18 µL of CuSO4:THPTA (100 mM), and the click reaction was initiated by addition of 15 µL of 150 mM sodium ascorbate (freshly dissolved in water). The samples were incubated on a rotary shaker for 1 h at room temperature.
mL water on ice, vortexed and centriduged at 3200 g for 10 min at 4°C. The top layer was aspirated, and 3 mL methanol was added, followed by centrifugation and aspiration of the supernatant. The pellets were air dried and stored at -80°C until the following treatment. The pellets were resuspended in 0.3 mL of 8 M urea freshly dissolved in PBS using probe sonication (8 sec total at 40% amplitude, 1 sec on/2 sec off, at room temperature). Following the resuspension, the samples were diluted with 1 mL of PBS. Then each sample was mixed with 1.3 mL of slurry containing 110 µL of streptavidin agarose beads (Thermo
The samples were incubated with rotation for 3 h at room temperature. The beads were pelleted by centrifugation at 2000 g for 2 min, transferred to spin columns, and washed 3 times with 0.1% IGEPAL/PBS, 3 times PBS, and 3 times water.
The beads were then suspended in 8 M Urea/50 mM ammonium bicarbonate, and 15 µL of 31 mg/mL DTT […]

[5] = Metabolic stability in human liver microsomes; details: 5 min incubation

Compound | IC50 [1] [nM] | spleen size [2] | BTK engagement in vivo (probe labeling of spleen lysate) [3] | number of off-targets (H/L ratio > 2) ([4]; Mino cells, 1 μM, 2 h) | isoDTB-ABPP H/L Ratio ([4]; P27708_C379) | isoDTB-ABPP H/L Ratio ([4]; P48643_C377) | compound remaining intact [5]
Nc1ncnc2c1c(-c1ccc(Oc3ccccc3)cc1)nn2[C@@H]1CCCN(C(=O)COS(=O)(=O)NCc2ccccc2)C1 [3d] | 164 |  |  |  |  |  | 
CNS(=O)(=O)OCC(=O)N1CCC[C@@H](n2nc(-c3ccc(Oc4ccccc4)cc3)c3c(N)ncnc32)C1 [3c] | 3.6 | decreased spleen size; also recorded: visually smaller | do not show probe labeling | 10 | 5.926 | 5.696 | over 30%
